Source: US7005513B1, “Functionalized glycosaminoglycan polymer and medical instruments and drugs by using the same” (Netech, Inc., priority 1999, dated 2006)

Test system: human coronary artery endothelial cells (CEC)
Test: CEC proliferation on coated multiplate (WST-1)
Type: cell-based
Set-up: reference not given here
Details: substance as plate coating, 3 days
Description: A polystyrene 96-well multiplate was coated with aqueous P-I-20 or P-N-12 solutions (0.5 mg/ml) of the present invention, and also 2% gelatin and 10 μg/ml of human fibronectin solution, these were inoculated with 6,000 human coronary artery endothelial cells (CEC) suspended in a Dulbecco modified Eagle medium (10% fetal bovine serum added), after which FGF2 or VEGF165 were added as cell growth factors, and this was cultured from 3 days. After culturing, a WST-1 reagent (cell counting kit, Dojindo) was used to count the number of increased cells, and the results of an evaluation of the proliferation rate are shown in Table 1.

Substance | CEC Proliferation Rate (FGF2 4 μg/l) | CEC Proliferation Rate (FGF2 8 μg/l) | CEC Proliferation Rate (VEGF165 4 μg/l) | CEC Proliferation Rate (VEGF165 8 μg/l)
Fibronectin | 273 | 327 | 371 | 436
Gelatin | 356 | 389 | 335 | 385
